This note sets out measurements from US10899910B2, “Quaternary cationic polymers” (ECOLAB USA, INC., priority 2016, dated 2021).

Data set [1] is described as follows: Corrosion bubble cell test (Linear Polarization Resistance). The settings on record: 2 ppm with 1% 2ME synergist, 80° C. Here is the method:
(§1) Cationic polymer salts were evaluated for corrosion performance as compared to a C12-C18 alkyl dimethyl benzyl ammonium chloride via a bubble test procedure. The bubble test simulates low flow areas where little or no mixing of water and oil occurs. The test was conducted using brine (80% of the brine being 3% sodium chloride brine and 20% of the brine being a hydrocarbon containing 75% LVT-200 kerosene oil and 25% xylene). The brine was placed into kettles and purged with carbon dioxide. The brine was continually purged with carbon dioxide to saturate the brine prior to starting the test. After the test began, the test cell was blanketed with carbon dioxide one hour prior to electrode insertion and through the duration of the test to maintain saturation. The kettles were stirred at 150 revolutions per minute (rpm) for the duration of the test to maintain thermal equilibrium at 80° C. The corrosion rate was measured by Linear Polarization Resistance (LPR) techniques. The working electrode used was carbon steel. The counter and reference electrodes were both 1018 carbon steel. The electrodes were all cleaned and polished prior to testing. Data were collected for three hours before 20 ppm of each of the compositions (containing 2 ppm of each of various pentaquaternary cationic polymer salts or the comparative C12-C18 alkyl dimethyl benzyl ammonium chloride and 1% 2-mercaptoethanol (2ME) as synergist in an organic solvent) was dosed into its respective cell. Data were collected overnight. A low concentration of the compositions was used to differentiate between the compositions.
Corrosion bubble cell tests were performed according to the method of Example A1 to evaluate a hexaquaternary cationic polymer salt for corrosion performance as compared to a C12-C18 alkyl dimethyl benzyl ammonium chloride. Data were collected for three hours before 20 ppm of each of the compositions (containing 2 ppm of a hexaquaternary cationic polymer salt or the comparative C12-C18 alkyl dimethyl benzyl ammonium chloride and 1% 2ME as synergist in an organic solvent) was dosed into its respective cell. Data were collected overnight. A low concentration of the compositions was used to differentiate between the compositions.
as §1, with “six” for “three”, “polyethyleneimine-based” for “pentaquaternary”, “cell. However, for the comparative composition, data was only collected three hours before addition of the compositions.” for “cell.”

Data set [2] is described as follows: Surface tension measurement (Tracker tensiometer). Type of data set: physicochemical. The settings on record: room temperature. On the procedure:
Surface tension measurements were conducted on a Tracker tensiometer (Teclis Instruments) at room temperature. Various concentrations of surfactant solutions were prepared and measurements were conducted.
The surface tension as a function of concentration of the cationic surfactant samples were measured and are listed in Table 2, where NT means not tested.

The subject of data set [3] is collection of aerobic bacteria from 30 water samples in cooling towers across North America. Nature of the data set: Biofilm reduction (biofilm inhibition test, stain absorbance at 590 nm). The format is cell-based. Conditions: for (Comp. - Single Quat 2)*100 / Single Quat 2: biofilm reduction relative to Single Quat 2. On the procedure: Biofilm reduction experiments were conducted to test the efficacy of multi-quaternary cationic polymers compared to single quaternary compounds. Two different compositions were prepared containing single quaternary compounds: a composition (Single Quat 1) comprising about 50% by weight bisoctyl dimethyl ammonium chloride (CAS #5538-94-3) and about 5-10% by weight glycerin; and a composition (Single Quat 2) comprising about 50% by weight didecyl-dimethyl ammonium chloride (CAS #7173-51-5) and about 10-30% by weight ethanol. The test bacteria comprised a collection of aerobic bacteria from 30 water samples in cooling towers across North America. Different concentrations of cationic polymer salts and single quaternary compounds were tested ranging from about 0.8 ppm to about 1000 ppm. Using the biofilm inhibition test protocols, the absorbed stains were extracted and absorbance was measured at 590 nm. The biofilm reduction was calculated by comparing the absorbance of treated vs untreated controls, then averaged over six replicates.

[4] abbreviates: CO2-saturated brine/hydrocarbon, three hours baseline (Tables 8, 9).

Consider `CCCCCCCCCCCCCCCCCC[N+](C)(C)CC(O)CN(CCN(CCN(CC(O)C[N+](C)(C)CCCCCCCCCCCCCCCCCC)CC(O)C[N+](C)(C)CCCCCCCCCCCCCCCCCC)CC(O)C[N+](C)(C)CCCCCCCCCCCCCCCCCC)CCN(CC(O)C[N+](C)(C)CCCCCCCCCCCCCCCCCC)CC(O)C[N+](C)(C)CCCCCCCCCCCCCCCCCC.[Cl-].[Cl-].[Cl-].[Cl-].[Cl-].[Cl-]` (stereo not drawn) [Compound 13], for which the “% Protection” value in data set [1] (setting [4]) is 52%. Also, the Surface tension in data set [2] (concentration 0.010 %) is on record as 63.28 mN/m; in data set [2] (concentration 0.025 %) it was 59.04 mN/m; in data set [2] (concentration 0.050 %), 55.36 mN/m; in data set [2] (concentration 0.100 %), 52.65 mN/m; in data set [2] (concentration 0.200 %), 50.31 mN/m; in data set [2] (concentration 0.500 %) it was 48.02 mN/m. Besides, the Surface tension in data set [2] (concentration 1.000 %) was 47.78 mN/m.
As to `CCCCCCCCCCCCCCCCCC[N+](C)(C)CC(O)CN(CCN(CC(O)C[N+](C)(C)CCCCCCCCCCCCCCCCCC)CC(O)C[N+](C)(C)CCCCCCCCCCCCCCCCCC)CCN(CC(O)C[N+](C)(C)CCCCCCCCCCCCCCCCCC)CC(O)C[N+](C)(C)CCCCCCCCCCCCCCCCCC.[Cl-].[Cl-].[Cl-].[Cl-].[Cl-]` (stereo not drawn) [Compound 12], in data set [1] (setting [4]), the “% Protection” value is reported as 55%. In addition, the Surface tension is reported as 63.16 mN/m in data set [2] (concentration 0.010 %); 55.77 mN/m in data set [2] (concentration 0.025 %); 51.89 mN/m in data set [2] (concentration 0.050 %); 49.42 mN/m in data set [2] (concentration 0.100 %); 47.02 mN/m in data set [2] (concentration 0.200 %); 45.02 mN/m in data set [2] (concentration 0.500 %). The Surface tension in data set [2] (concentration 1.000 %) is 44.22 mN/m; in data set [2] (concentration 1.500 %), 43.46 mN/m; in data set [2] (concentration 2.000 %) it was 42.97 mN/m.
Consider `CCCCCCCCCCCCCCCCCC[N+](C)(C)CC(O)CN(CCN(CCN(CC(O)C[N+](C)(C)CCCCCCCCCCCCCCCCCC)CC(O)C[N+](C)(C)CCCCCCCCCCCCCCCCCC)CC(O)C[N+](C)(C)C)CC(O)C[N+](C)(C)CCCCCCCCCCCCCCCCCC.[Cl-].[Cl-].[Cl-].[Cl-].[Cl-]` (stereo not drawn) [Compound 11], for which the “% Protection” value in data set [1] (setting [4]) was found to be 76%. Besides, the Surface tension in data set [2] (concentration 0.010 %) came out at 63.52 mN/m; in data set [2] (concentration 0.025 %), 60.01 mN/m; in data set [2] (concentration 0.050 %), 56.35 mN/m; in data set [2] (concentration 0.100 %) it was 53.23 mN/m; in data set [2] (concentration 0.200 %) it was 50.16 mN/m; in data set [2] (concentration 0.500 %), 47.38 mN/m. The compound further returned a Surface tension in data set [2] (concentration 1.000 %) of 46.58 mN/m.
For `CCCCCCCCCCCCCCCCCC[N+](C)(C)CC(O)CN(CCN(CCN(CC(O)C[N+](C)(C)CCCCCCCCCCCCCCCCCC)CC(O)C[N+](C)(C)CCCCCCCCCCCCCCCCCC)CC(O)C[N+](C)(C)C)CC(O)C[N+](C)(C)C.[Cl-].[Cl-].[Cl-].[Cl-].[Cl-]` (stereo not drawn) [Compound 10], the Surface tension is 70.99 mN/m in data set [2] (concentration 0.010 %); 61.99 mN/m in data set [2] (concentration 0.025 %); 57.33 mN/m in data set [2] (concentration 0.050 %); 52.64 mN/m in data set [2] (concentration 0.100 %); 50.58 mN/m in data set [2] (concentration 0.200 %); 47.92 mN/m in data set [2] (concentration 0.500 %). In data set [2] (concentration 1.000 %), this compound gave a Surface tension of 47.48 mN/m.
Turning to `CCCCCCCCCCCCCCCCCC[N+](C)(C)CC(O)CN(CCN(CCN(CC(O)C[N+](C)(C)C)CC(O)C[N+](C)(C)C)CC(O)C[N+](C)(C)C)CC(O)C[N+](C)(C)C.[Cl-].[Cl-].[Cl-].[Cl-].[Cl-]` (stereo not drawn) [Compound 7], in data set [1] (setting [4]), the “% Protection” value stood at 64%. Further, the Biofilm reduction in data set [3] (active conc. 0.8 ppm) came out at 22.9%; in data set [3] (active conc. 1.6 ppm), 12.7%; in data set [3] (active conc. 3.0 ppm), 46.7%; in data set [3] (active conc. 6.0 ppm), 23.5%; in data set [3] (active conc. 8.0 ppm), 54.9%; in data set [3] (active conc. 12.0 ppm), 65.1%. For the same compound, the Biofilm reduction came out at 90.6% in data set [3] (active conc. 16.0 ppm); 90.6% in data set [3] (active conc. 25.0 ppm); 94.7% in data set [3] (active conc. 31.0 ppm); 93.0% in data set [3] (active conc. 50.0 ppm); 96.6% in data set [3] (active conc. 62.0 ppm); 79.3% in data set [3] (active conc. 100.0 ppm). For the same compound, the Biofilm reduction in data set [3] (active conc. 125.0 ppm) turned out to be 96.6%; in data set [3] (active conc. 250.0 ppm), 97.1%; in data set [3] (active conc. 500.0 ppm), 97.8%; in data set [3] (active conc. 1000.0 ppm) it was 98.4%. Besides, the “(Comp. - Single Quat 2)*100 / Single Quat 2” value in data set [3] (active conc. 0.8 ppm) is listed as 106.8%; in data set [3] (active conc. 1.6 ppm), 321.3%; in data set [3] (active conc. 3.0 ppm) it was 35.5%; in data set [3] (active conc. 6.0 ppm), 195.0%; in data set [3] (active conc. 8.0 ppm), −20.8%; in data set [3] (active conc. 12.0 ppm) it was 24.2%. For the same compound, the “(Comp. - Single Quat 2)*100 / Single Quat 2” value was 10.9% in data set [3] (active conc. 16.0 ppm); 12.9% in data set [3] (active conc. 25.0 ppm); 16.0% in data set [3] (active conc. 31.0 ppm); 15.7% in data set [3] (active conc. 50.0 ppm); 47.6% in data set [3] (active conc. 62.0 ppm); 608.5% in data set [3] (active conc. 100.0 ppm). Further, the “(Comp. - Single Quat 2)*100 / Single Quat 2” value in data set [3] (active conc. 125.0 ppm) was determined as 1517.3%; in data set [3] (active conc. 250.0 ppm) it was 15.3%; in data set [3] (active conc. 500.0 ppm) it was 6.3%; in data set [3] (active conc. 1000.0 ppm), 63.7%. Further, the “biofilm reduction compared with the Single Quat 2 composition” value in data set [3] (at concentrations as low as about 12 ppm) is recorded as “reduced biofilms to a greater extent than the Single Quat 2 composition”. Further, the Surface tension stood at 73.70 mN/m in data set [2] (concentration 0.010 %); 72.05 mN/m in data set [2] (concentration 0.025 %); 64.84 mN/m in data set [2] (concentration 0.050 %); 60.93 mN/m in data set [2] (concentration 0.100 %); 57.12 mN/m in data set [2] (concentration 0.200 %); 55.13 mN/m in data set [2] (concentration 0.500 %).
On to “C12-C18 alkyl dimethyl benzyl ammonium chloride [reference compound]”, for which the “% Protection” value in data set [1] (six hours baseline (comparative: three hours) (Table 10)) and in data set [1] (setting [4]) was 38% throughout.
